# How the values were obtained:
# [1] = Comparative experiment for the degradation of ethylene oxide (gas chromatography); details: Example 3
# Procedure: The bacteria having a potential for degrading ethylene oxide which have not been subjected to the acclimatization steps and the strains capable of tolerating and degrading ethylene oxide obtained after the acclimatization steps were inoculated into activation medium, respectively, for activation, and cultured to a bacteria concentration of 10^10-10^12 cfu/mL in the culture.
# The activation medium was made as follows: Peptone 10 g, filled with distilled water to 1000 mL which was distributed into 400 mL. Then, sterilization was performed at 121° C. for 20 min. Thereafter, the temperature of the medium was cooled down to RT for storage. 160 mg and 320 mg of ethylene oxide was added, respectively, by using a sealed syringe to obtain two activation media containing different concentrations (400 mg/L and 800 mg/L, respectively) of ethylene oxide for the test of degrading capability of the ethylene oxide-degrading strains.
# Comparative experiment for the degradation of ethylene oxide was performed with the following test groups and control group.
# Test group 1: 5 mL of an activation culture of the bacteria capable of tolerating and degrading ethylene oxide was inoculated into 400 mL of activation media containing 400 mg/L (1A) and 800 mg/L (1B), respectively, of ethylene oxide. The amount of live bacteria in the medium was 10^8-10^10 cfu/mL.
# Test group 2: 5 mL of an activation culture of the bacteria having a potential for degrading ethylene oxide which have not been subjected to the acclimatization steps was inoculated into 400 mL of activation media containing 400 mg/L (2A) and 800 mg/L (2B), respectively, of ethylene oxide. The amount of live bacteria in the medium was 10^8-10^10 cfu/mL.
# Control group: 400 mL of activation media containing 400 mg/L (control group A) and 800 mg/L (control group B), respectively, of ethylene oxide with no bacteria strain inoculated.
# The test groups and control groups are placed together in an incubated for culturing at 37° C. for 48 h. […] The result of degradation was detected by gas chromatography. […]
# the subject samples to be analyzed were prepared by diluting samples from the treatment and control groups 5 times with deionized water;
# after the GC instrument is stabilized and under the same conditions, 2 μL each of the ethylene oxide standards and the diluted samples to be analyzed were injected into the GC instrument, wherein each sample was measured twice in parallel;
# qualitive determination was conducted according to the retention time and quantitative calculation on each peak area was performed to take the average value; […]
# the degradation rate of ethylene oxide for each sample was calculated according to the following formula: Degradation Rate (%)=(Control Group Concentration−Treatment Group Concentration)/Control Group Concentration×100. […]
# [2] = Ethylene oxide degradation acclimatization: growth on 800 mg/L ethylene oxide plates with decreasing carbon source; design: key: + normal growth; ± low growth
# Procedure: (§1) Ethylene oxide degradation acclimatization medium plates were made as follows: Peptone 10 g, glucose (20 g, 12 g, 4 g, and 0 g, respectively), agar 15 g, pH adjusted to 5.4-5.8, and filled with distilled water to 1000 mL which was distributed into 250 mL. Sterilization was then performed at 121° C. for 20 min. The medium was heated to melt before use. When the temperature of the medium was cooled down to 50-56° C., 200 mg of ethylene oxide was added by using a sealed injection needle to obtain four ethylene oxide degradation acclimatization medium plates containing different concentrations of carbon source (50%, 30%, 10%, 0%, respectively), named as ethylene oxide degradation acclimatization medium plate A, ethylene oxide degradation acclimatization medium plate B, ethylene oxide degradation acclimatization medium plate C, and ethylene oxide degradation acclimatization medium plate D, respectively.
# (§2) The ethylene oxide-tolerant bacteria were streak-inoculated on Ethylene Oxide Degradation Acclimatization medium A, and cultured at a constant temperature of 37° C. for 48 h; a single colony having a largest radius was picked for further inoculation on Ethylene Oxide Degradation Acclimatization medium B, and cultured at a constant temperature of 37° C. for 48 h; a single colony having a largest radius was picked for further inoculation on Ethylene Oxide Degradation Acclimatization medium C, and cultured at a constant temperature of 37° C. for 48 h; a single colony having a largest radius was picked for further inoculation on Ethylene Oxide Degradation Acclimatization medium D, and cultured at a constant temperature of 37° C. for 48 h; a single colony having a largest radius was picked and preserved on an agar medium bevel containing corresponding nutritional components in Ethylene Oxide Degradation Acclimatization medium D, to obtain ethylene oxide-degrading strains. Growth situation of the strains on the ethylene oxide degradation acclimatization medium plates A, B, C, and D are as shown in Table 1.
# [3] = Ethylene oxide tolerance acclimatization: growth on medium plates with increasing ethylene oxide; design: key: + normal growth; ± low growth; details: Example 3, carbon source 100%
# Procedure: as §1, with “tolerance” for “degradation”, “40” for “(20”, “g,” for “g, 12 g, 4 g, and 0 g, respectively),”, “C., 25 mg, 50 mg, 125 mg, and” for “C.,”, “added, respectively,” for “added”, “ethylene oxide (100 mg/L, 200 mg/L, 500 mg/L, and 800 mg/L,” for “carbon source (50%, 30%, 10%, 0%,”
# as §2, with “The purified bacteria having a potential for degrading” for “The”, “oxide” for “oxide-tolerant bacteria”, “ethylene oxide tolerance acclimatization” for “Ethylene Oxide Degradation Acclimatization”, “h,” for “h; a single colony having a largest radius was picked and preserved on an agar medium bevel containing corresponding nutritional components in Ethylene Oxide Degradation Acclimatization medium D,”, “oxide-tolerant bacteria.” for “oxide-degrading strains.”, “tolerance” for “degradation”
substance,measurement,setting,value
Lactobacillus,EO (400 mg/L)/C (0%) Degradation rate (%) After Acc.,"[1]; EO 400 mg/L, strain after acclimatization",75.96%
same,EO (400 mg/L)/C (0%) Degradation rate (%) Before Acc.,"[1]; EO 400 mg/L, strain before acclimatization",17.32%
same,EO (800 mg/L)/C (0%) Degradation rate (%) After Acc.,"[1]; EO 800 mg/L, strain after acclimatization",64.83%
same,EO (800 mg/L)/C (0%) Degradation rate (%) Before Acc.,"[1]; EO 800 mg/L, strain before acclimatization",6.89%
same,"Growth, EO (800 mg/L)/ C (%) 0 %","[2]; Example 3, carbon source 0%",+
same,"Growth, EO (800 mg/L)/ C (%) 10 %","[2]; Example 3, carbon source 10%",+
same,"Growth, EO (800 mg/L)/ C (%) 30 %","[2]; Example 3, carbon source 30%",+
same,"Growth, EO (800 mg/L)/ C (%) 50 %","[2]; Example 3, carbon source 50%",+
same,"Growth, C (100%)/EO(mg/L) 100",[3]; EO 100 mg/L,+
same,"Growth, C (100%)/EO(mg/L) 200",[3]; EO 200 mg/L,+
same,"Growth, C (100%)/EO(mg/L) 500",[3]; EO 500 mg/L,+
same,"Growth, C (100%)/EO(mg/L) 800",[3]; EO 800 mg/L,+

# From US11085016B1, “Method for screening bacteria capable of degrading ethylene oxide” (priority 2020, dated 2021)
